Reference: US12697328B2, “Methods for treating metastasis with cathepsin C inhibitors” (Shanghai Institute of Nutrition and Health, Chinese Academy …, priority 2020, dated 2026)

What was measured:
[1] = system: colon cancer cells SW480; test: NET-promoted tumor sphere formation, colon cancer; type: cell-based; details: neutrophil medium, CM with or without brensocatib, FIG. 11K
Protocol: (§1) To test the therapeutic effects of brensocatib in different cancer types in vitro, the ability of brensocatib to inhibit NET-promoted tumor sphere formation is investigated. The neutrophils are cultured with conditioned medium from tumor cells of colon cancer, liver cancer, lung cancer, gastric cancer and pancreatic cancer with or without brensocatib treatment to activate NETosis, and then the neutrophil medium was used in tumor sphere formation of these cancer cells to analyze the effect of neutrophil medium to facilitate tumor cell growth. The amount of tumorsphere in each sample is then determined by imaging.

[2] = system: liver cancer cells HUH7; test: Mouse xenograft, liver tumor cells by spleen injection; type: in vivo; details: nude mice
Protocol: A series of mouse xenograft studies are conducted by injecting liver and pancreatic tumor cells into nude mice by spleen injection. Then the mice are treated by brensocatib, and the growth of the tumors in liver is observed.

[3] = system: pancreatic cancer cells KP4; test: NET-promoted tumor sphere formation, pancreatic cancer; type: cell-based; details: neutrophil medium, CM with or without brensocatib, FIG. 11O
Protocol: as §1

[4] = system: 4T1 breast cancer cells; test: Tumor sphere formation of 4T1 cells in medium of neutrophils pre-treated with 4T1 CM; type: cell-based; details: 4T1 cells in medium of neutrophils pre-treated with CM of 4T1; vs untreated control; FIG. 10F
[5] = target: T1, CTSC (Homo sapiens, UniProt P53634); test: CTSC protein expression in metastatic tumor cells; type: cell-based; details: a number of metastatic tumor cell types treated with brensocatib; FIGS. 11A-C
T1 construct: The CTSC protein secretion level in tumor cells with different capabilities of metastasis to various target organs; endogenous in cells; host or cells: metastatic breast cancer cells (MDA-MB-231, SP16, SP16L; bone-metastatic lines) and bone-metastatic lung cancer cells
Protocol: Cultured cells were collected by scraper or trypsinized and then lysed with lysis buffer (50 mM Tris-HCl, 150 mM NaCl, 1% NP-40 detergent, 0.5% sodium deoxycholate, 0.1% SDS with phosphatase and protease inhibitors), and dispersed tissue were homogenized in RIPA buffer on ice for 15 min, followed by centrifugation at 17,000 g for 15 min. The protein concentration was measured with a BCA Protein Assay Kit. Proteins of 10 μg, 80 μg, 30 μg were loaded for membrane proteins, IL-1β processing, p65 phosphorylation and the other assays, respectively, and separated on 8-12% SDS-polyacrylamide gel. For cancer cell conditioned medium (CM) collection, cells were grown to ~80% confluence in 10 cm culture dishes. After three times washing with serum-free medium at 37° C., the cells were incubated in serum-free medium at 37° C. for 24 h. The CM were collected, centrifuged at 2,000 g for 10 min, filtrated by 0.22 μm filters, stored at −80° C. until used. The secreted proteins in CM were collected by TCA precipitation. Briefly, 25% v/v TCA was added into 1 ml CM with phosphatase and protease inhibitors, incubated overnight at 4° C., and then centrifuged at 20,000 g for 60 min, after which the supernatant was discarded and the pellet was washed twice with 1 ml pre-chilled acetone, centrifuged again at 20,000 g for 5 min at 4° C. […]

[6] = system: CTSC-overexpressing AT3 cancer cells; test: Brensocatib treatment of mice after orthotopic injection of CTSC-overexpressing AT3 cancer cells; type: in vivo, C57/BL6 mice; details: brensocatib 5 mg/kg orally twice daily
Protocol: Female BALB/c and athymic mice aged 6-10 weeks were used in all animal experiments. […] For EdU labeling assays, nude mice were intravenously injected with 2×10^5 cancer cells, followed by intraperitoneal (i.p.) injection of 100 ng/mouse EdU (ThermoFisher, C10640) 24 h before lung harvest. […] For Sivelestat or DNase I treatment, mice were i.p. injected with Sivelestat (50 mg/kg) or DNase I (5 mg/kg) 2 h before cancer cell injection, followed by daily injection of the reagents for 9 days, and then maintenance shots twice a week. For GSK484 treatment, mice were treated with GSK484 (20 mg/kg, i.p. daily shots for 20 days from day 7, and then maintenance shots every two days) following orthotopic injection of AT3 or 4T07 cells. For IL-1b blocking or IL6R/CCR1 inhibition assays, mice were orthotopically inoculated with 5×10^4 AT3 and treated with i.p. administration of IgG or the IL-1β blocking antibody (100 μg per mouse), or the IL6R blocking antibody (100 μg per mouse) and the CCR1 inhibitor BX471 (20 mg/kg), every two days from day 7 until the mice were sacrificed. For brensocatib treatment, BALB/c mice were orthotopically inoculated with 1×10^5 4T1 cells, and C57/BL6 mice were orthotopically inoculated with 2×10^5 AT3. Vehicle controls (0.5% HPMC, 0.1% Tween 80 in 0.1 M citrate buffer, pH 3) and brensocatib (5 mg/kg) were administered orally twice daily until the mice were sacrificed. Orthotopic tumors were surgically removed at the size of about 1 cm^3. […] For TSP-1 degradation assays, mice were i.p. injected with GSK484 (20 mg/kg) 2 h before cancer cell injection and followed by daily treatment. Then, the lungs were perfused with 50 ml of pre-chilled PBS through the right ventricle until they were cleared of blood at 72 h post injection of 3×10^6 AT3 or 4T07 cells. BLI was acquired with NightOWL II LB983 Imaging System (Bert-hold) and IVIS Spectrum CT (PerkinElmer). All animal studies were conducted according to the guidelines for the care and use of laboratory animals and were approved by the Institutional Animal Care and Use Committee of Shanghai Institute of Nutrition and Health.

[7] = system: neutrophils; test: Neutrophil recruitment by cancer cell conditioned medium (Transwell chambers); type: cell-based, mice; details: CM of liver-metastatic breast cancer and bone-metastatic lung cancer cells, with or without brensocatib; FIGS. 11G, J
Protocol: To isolate neutrophil from bone marrow, bone marrow cells from 8 to 12-weeks-old BALB/c mice were harvested in sterile Hank's buffered salt solution (HBSS) without Ca^2+/Mg^2+ (14185052, Invitrogen), and laid on top of a 2-layer Percoll (17089102, GE Healthcare) gradient (72% and 63.5% in HBSS), followed by centrifugation at 1,200 g for 30 min at 25° C. Neutrophils enriched in the interface of 63.5%-72% fractions were confirmed to be of >95% purity by flow cytometry analysis. To isolate neutrophils from peripheral blood of mice, whole blood was collected via cardiac puncture (1 ml per animal) and suspended in HBSS (2 ml per animal) with 15 mM EDTA. After centrifugation (400 g, 10 min, 4° C.), white cells were resuspended in 2 ml HBSS with 2 mM EDTA. Then, the cells were centrifuged (1500 g, 30 min, room temperature) in a three-layer Percoll gradient (78%, 69%, and 52%) without braking. […] The purity of the isolated neutrophils was determined by May-Grunwald-Giemsa staining (40751ES02, Yea-sen). […]
The procedure of two-chamber migration assays was previously described (Zhuang et al., “Differential effects on lung and bone metastasis of breast cancer by Wnt signalling inhibitor DKK1,” Nat. Cell Biol. 19:1274-1285 (2017)). […] The migrated cells in the lower chamber were counted after 3 h. […]

T1 sequence (P53634 25-463): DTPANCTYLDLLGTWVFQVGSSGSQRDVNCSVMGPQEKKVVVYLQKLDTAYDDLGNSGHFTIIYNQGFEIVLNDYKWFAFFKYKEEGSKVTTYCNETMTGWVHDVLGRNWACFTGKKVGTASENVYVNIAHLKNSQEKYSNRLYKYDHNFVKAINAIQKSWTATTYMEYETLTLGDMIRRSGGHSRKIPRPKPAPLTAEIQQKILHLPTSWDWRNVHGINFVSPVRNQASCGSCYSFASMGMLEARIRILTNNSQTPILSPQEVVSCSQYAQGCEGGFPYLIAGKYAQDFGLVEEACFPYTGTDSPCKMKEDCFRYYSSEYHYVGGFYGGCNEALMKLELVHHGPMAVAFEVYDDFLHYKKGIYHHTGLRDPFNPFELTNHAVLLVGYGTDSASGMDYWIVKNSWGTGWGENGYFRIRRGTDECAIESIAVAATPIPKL

## Cn1c(=O)oc2ccc(-c3ccc(C[C@@H](C#N)NC(=O)[C@@H]4CNCCCO4)cc3)cc21 [brensocatib, (2S)—N-{(1S)-1-cyano-2-[4-(3-methyl-2-oxo-2,3-dihydro-1,3-benzoxazol-5-yl)phenyl]ethyl}-1,4-oxazepane-2-carboxamide]
[1]
  NET-promoted tumor sphere formation (in vitro tumor growth): inhibit in vitro tumor growth
[2]; spleen injection of HUH7, FIG. 12B
  formation of liver surface nodules: suppresses
[2]; spleen injection, FIG. 12A
  tumor growth of liver cancer cells HUH7 in liver: significantly inhibits tumor growth
[3]
  NET-promoted tumor sphere formation (in vitro tumor growth): inhibit in vitro tumor growth
[4]
  tumor sphere formation: suppressed
[5]
  CTSC protein expression: significantly reduced
[6]; FIG. 10J
  survival rate: significant increase
[6]; FIG. 10K
  circulating levels of IL-1β: decrease
[6]; FIGS. 10G-I
  circulating NETs: Decreases
  lung metastases: Decreases
  lung metastatic nodule formation: Decreases
  neutrophil migration: Decreases
[7]
  neutrophil recruitment: significantly reduced
